Results: patent US7348402B2, “Antimicrobial peptide, its analogs and antimicrobial composition comprising them” (priority 2002, dated 2008)
No end group written: not given here.

What was measured:
Format in all cases: cell-based
[1] = test system: Streptococcus mutans (ATCC 25175); settings: ATCC 25175, 12 h
Text: (§1) The microorganisms used in the present invention include Gram-positive bacteria such as Bacillus subtilis (ATCC 62037), Staphylococcus aureus (ATCC 15752) and Streptococcus mutans (ATCC 25175), Gram-negative bacteria such as Escherichia coli (ATCC 27325), Salmonella enteritidis (ATCC 15277) and Pseudomonas putida (ATCC 17426) and fungi such as Candida albicans (ATCC 10231), Saccharomyces cerevisiae (ATCC 44774) and Cryptococcus neoformans (ATCC 34881), obtained from American Type Culture Collection (ATCC).
(§2) The antimicrobial activity of the peptides prepared in Example 1 was determined against microorganisms by 96-well microdilution minimal inhibitory concentration assay. After overnight culturing the bacteria and fungi in trypticase soy broth (TSB) and Saboraud (SAB) at 37° C. and 30° C., respectively, they were inoculated in new media and cultured for 2 hours to exponential growth phase. After diluting the microorganisms to 10^5 per 1 ml, 190 μl was inoculated in each 96-well plate, and 10 μl of serially diluted peptides were added in each well.

[2] = test system: Pseudomonas putida (ATCC 17426); settings: ATCC 17426, 12 h
Text: as §1, §2

[3] = test system: Saccharomyces cerevisiae (ATCC 44774); settings: ATCC 44774, 12 h
Text: as §1, §2

[4] = test system: Staphylococcus aureus (ATCC 15752); settings: ATCC 15752, 12 h
Text: as §1, §2

[5] = test system: Cryptococcus neoformans (ATCC 34881); settings: ATCC 34881, 12 h
Text: as §1, §2

[6] = test system: Bacillus subtilis (ATCC 62037); settings: ATCC 62037, 12 h
Text: as §1, §2

[7] = test system: Escherichia coli (ATCC 27325); settings: ATCC 27325, 12 h
Text: as §1, §2

[8] = test system: Salmonella enteritidis (ATCC 15277); settings: ATCC 15277, 12 h
Text: as §1, §2

[9] = test system: Candida albicans (ATCC 10231); settings: ATCC 10231, 12 h
Text: as §1, §2

| Substance | Minimum Inhibitory Concentration [1] | Minimum Inhibitory Concentration [2] | Minimum Inhibitory Concentration [3] | Minimum Inhibitory Concentration [4] | Minimum Inhibitory Concentration [5] | Minimum Inhibitory Concentration [6] | Minimum Inhibitory Concentration [7] | Minimum Inhibitory Concentration [8] | Minimum Inhibitory Concentration [9] |
| --- | --- | --- | --- | --- | --- | --- | --- | --- | --- |
| KLLKKLLKKLLKNWPIGKLLK [compound 55] | 2 µg/mL | 1 µg/mL | 2 µg/mL | 1 µg/mL | 1 µg/mL | 1 µg/mL | 2 µg/mL | 1 µg/mL | 1 µg/mL |
| KLLKKLLKKLLKQWPIGKLLK [compound 38] | 2 µg/mL | 1 µg/mL | 2 µg/mL | 1 µg/mL | 1 µg/mL | 1 µg/mL | 2 µg/mL | 1 µg/mL | 2 µg/mL |
| KLLKNWPIGKLLKKLLKKLLK [compound 21] | 2 µg/mL | 1 µg/mL | 1 µg/mL | 1 µg/mL | 1 µg/mL | 1 µg/mL | 1 µg/mL | 2 µg/mL | 2 µg/mL |
| KLLKQWPIGKLLKKLLKKLLK [compound 4] | 1 µg/mL | 1 µg/mL | 2 µg/mL | 1 µg/mL | 1 µg/mL | 2 µg/mL | 1 µg/mL | 1 µg/mL | 1 µg/mL |
| KLLRKLLRKLLRNWPIGKLLR [compound 63] | 2 µg/mL | 1 µg/mL | 2 µg/mL | 1 µg/mL | 1 µg/mL | 1 µg/mL | 1 µg/mL | 2 µg/mL | 1 µg/mL |
| KLLRNWPIGKLLRKLLRKLLR [compound 29] | 2 µg/mL | 1 µg/mL | 2 µg/mL | 1 µg/mL | 1 µg/mL | 1 µg/mL | 1 µg/mL | 1 µg/mL | 1 µg/mL |
| KLVKKLVKKLVKQWPIGKLVK [compound 42] | 2 µg/mL | 1 µg/mL | 1 µg/mL | 1 µg/mL | 1 µg/mL | 1 µg/mL | 1 µg/mL | 1 µg/mL | 1 µg/mL |
| KLVKQWPIGKLVKKLVKKLVK [compound 8] | 2 µg/mL | 1 µg/mL | 2 µg/mL | 1 µg/mL | 1 µg/mL | 1 µg/mL | 1 µg/mL | 1 µg/mL | 2 µg/mL |
| KLVRKLVRKLVRNFPVGKLVR [compound 68] | 2 µg/mL | 1 µg/mL | 2 µg/mL | 1 µg/mL | 1 µg/mL | 1 µg/mL | 1 µg/mL | 1 µg/mL | 1 µg/mL |
| KLVRKLVRKLVRQFPVGKLVR [compound 51] | 1 µg/mL | 1 µg/mL | 2 µg/mL | 1 µg/mL | 1 µg/mL | 1 µg/mL | 1 µg/mL | 2 µg/mL | 1 µg/mL |
| KLVRKLVRKLVRQWPIGKLVR [compound 50] | 1 µg/mL | 1 µg/mL | 2 µg/mL | 1 µg/mL | 1 µg/mL | 1 µg/mL | 1 µg/mL | 2 µg/mL | 1 µg/mL |
| KLVRNFPVGKLVRKLVRKLVR [compound 34] | 2 µg/mL | 1 µg/mL | 1 µg/mL | 1 µg/mL | 1 µg/mL | 1 µg/mL | 1 µg/mL | 1 µg/mL | 1 µg/mL |
| KLVRQFPVGKLVRKLVRKLVR [compound 17] | 2 µg/mL | 1 µg/mL | 1 µg/mL | 1 µg/mL | 1 µg/mL | 2 µg/mL | 1 µg/mL | 1 µg/mL | 1 µg/mL |
| KLVRQWPIGKLVRKLVRKLVR [compound 16] | 2 µg/mL | 1 µg/mL | 1 µg/mL | 1 µg/mL | 1 µg/mL | 2 µg/mL | 1 µg/mL | 1 µg/mL | 1 µg/mL |
| KLVRQWPIGKLVRKLVRKLVR-NH2 [compound 69] | 1 µg/mL | 1 µg/mL | 2 µg/mL | 1 µg/mL | 1 µg/mL | 1 µg/mL | 1 µg/mL | 2 µg/mL | 1 µg/mL |
| KVLKKVLKKVLKNWPIGKVLK [compound 57] | 2 µg/mL | 1 µg/mL | 2 µg/mL | 1 µg/mL | 1 µg/mL | 1 µg/mL | 2 µg/mL | 1 µg/mL | 1 µg/mL |
| KVLKNWPIGKVLKKVLKKVLK [compound 23] | 2 µg/mL | 1 µg/mL | 1 µg/mL | 1 µg/mL | 1 µg/mL | 1 µg/mL | 1 µg/mL | 2 µg/mL | 1 µg/mL |
| KVLRKVLRKVLRNWPIGKVLR [compound 65] | 2 µg/mL | 1 µg/mL | 1 µg/mL | 1 µg/mL | 1 µg/mL | 2 µg/mL | 1 µg/mL | 2 µg/mL | 1 µg/mL |
| KVLRKVLRKVLRQWPIGKVLR-NH2 [compound 71] | 1 µg/mL | 1 µg/mL | 2 µg/mL | 1 µg/mL | 1 µg/mL | 1 µg/mL | 1 µg/mL | 1 µg/mL | 1 µg/mL |
| KVLRNWPIGKVLRKVLRKVLR [compound 31] | 2 µg/mL | 1 µg/mL | 2 µg/mL | 1 µg/mL | 1 µg/mL | 1 µg/mL | 1 µg/mL | 1 µg/mL | 1 µg/mL |
